Marks after values point to notes of the source that are not given here.
Key:
E-RFC = test: Increase in no. E-RFC in vitro after incubation with L-Glu-L-Trp (breast cancer patients); assay type: cell-based, human
Method: Thirty six patients with breast cancer were treated with conventional radiation therapy (i.e., single doses of about 2-3 Gy daily for 10 days; total cumulative patient dose of 20-30 Gy). Following radiotherapy the patients were treated with L-Glu-L-Trp by injection of daily dosages im of 100 μg. The patients had been previously treated with radiation therapy (single doses 2 Gy; total dose 20-30 Gy).
Ram erythrocytes (E) were washed 4× in saline (2000 rpm/10 min.) and suspended at a final concentration of 1% in Medium 199. For determinations of the percentage of E-rosette forming T-lymphocytes (E-RFC) in a sample, 0.1 mL of a prepared lymphocyte suspension (2.5×10^6/ml) was incubated with 0.1 mL of the 1% ram erythrocyte suspension at 37° C. for 10 min., centrifuged at 800-1000 rpm for 5 min., maintained at 4° C. for 2 hrs., and finally resuspended and counted in a Goryaev chamber. Activated T-lymphocytes (i.e., having increased E-RFC capacity) were determined by mixing the test lymphocyte suspension with E, immediately centrifuging for 5 min. at 800-1000 rpm, resuspending the cells and counting the rosettes formed in a Goryaev chamber.

[1] = Pelvic inflammatory diseases; assay type: in vivo, human
Method: Ninety-six female patients (96) were entered into a trial having a variety of different disorders, i.e., pelvic inflammatory diseases, cervicitis, vaginitis and various tubo-ovarian and adnexal abscesses. Forty-six patients (46) comprised the L-Glu-L-Trp treatment group, and 50 patients comprised a conventional treatment control group. L-Glu-L-Trp was administered daily im at a dose of 100 μg, or 1 μg/kg intranasally, on each of 5 consecutive days. Alternatively, 50 μg of L-Glu-L-Trp was injected intralymphatically on each of 5 consecutive days in conjunction with conventional therapy. […] Normalization of immune parameters was correlated with the observed clinical improvements.
Patients entered into Group 1 (aged 19-50) were separable into clinical subgroups as follows: Subgroup 1A, consisted of 18 patients having […] (body temperature 38-39° C.), and suppurative vaginal discharge after infected abortions performed outside hospitals (average age 24.4±4.2 years); Subgroup 1B, consisted of 16 patients with abdominal pains resulting from chronic nonspecific subfebrile (<38° C.) inflammatory disease of the fallopian tubes (average age 32.2±3.9 years; range of abortions in the patient population 2-8); and, Subgroup 1C consisted of 12 patients with inflammation of the fallopian tubes, (38% resulting from placement of an IUD in the uterus more than 4 years previously). […] Group 2 (control) was constituted of 50 patients (aged 18-44) presenting with analogous symptoms and diseases and the patients in this group were treated with traditional antibiotic therapy.
In all cases L-Glu-L-Trp was delivered im at a dose of 100 μg in 1 ml volume daily on each of five days.
Treatment A: Administered to patients in Group 1A: The course of L-Glu-L-Trp therapy was administered, remnants of fetal tissue were surgically removed, and an additional course of L-Glu-L-Trp therapy was administered.
Treatment B: Administered to patients in Group 1B: L-Glu-L-Trp therapy was administered immediately upon admission into the protocol.
Treatment C: Administered to patients in Group 1C: Infected uterine tissues were surgically removed, abdominal drainage was established, and L-Glu-L-Trp therapy was administered starting 2 days post-operatively.
Patients were evaluated by monitoring the following parameters before, during, and 5-7 days after therapy: i) clinical status of the patient (i.e., body temperature, abdominal pain, and physical examinations) and, ii) laboratory data (i.e., urinalysis, blood chemistry, and blood immunology). The following clinical chemistry values of the patients in Groups 1A, 1B, and 1C were all within the normal range before and after treatment: AST, ALT, creatinine, urea, glucose, protein, chloride, potassium, and sodium. […] Treatment with L-Glu-L-Trp reduced the latter serum markers, i.e., alkaline phosphatase fell to 62.71±5.67 ED/mL and bilirubin to 0.50±0.03 mg %.

cAMP and cGMP = test: Splenic lymphocyte cAMP and cGMP, normal, sensitized and anaphylactic animals; assay type: in vivo, guinea pigs; settings: for cAMP / cAMP/cGMP / cGMP: splenic lymphocytes, 10 μg/kg
Method: Normal guinea pigs (10/group) were treated with 10 μg/kg L-Glu-L-Trp daily on each of five consecutive days and then spleens were removed, lymphocytes isolated, and cyclic AMP and GMP levels determined. To evaluate the effects of L-Glu-L-Trp on immune cells in the face of an ongoing anaphylactic response, splenic lymphocytes were isolated from guinea pigs sensitized for anaphylaxis, or following induction of anaphylactic shock.

[2] = pooled Groups 1A-1C, After L-Glu-L-Trp Therapy
[3] = sensitized + anaphylaxis (Group 5)
[4] = sensitized guinea pigs (Group 3)

L-Glu-L-Trp
Increase in no. E-RFC in vitro after incubation with L-Glu-L-Trp (E-RFC; cells taken After L-Glu-L-Trp therapy): 1.27 ± 0.14 | Increase in no. E-RFC in vitro after incubation with L-Glu-L-Trp (E-RFC; cells taken After Radiotherapy): 1.19 ± 0.13 | Increase in no. E-RFC in vitro after incubation with L-Glu-L-Trp (E-RFC; cells taken Before Radiotherapy): 1.23 ± 0.15 | Alkaline phosphatase ([1]; after treatment): 62.71±5.67 ED/mL | B-lymphocytes, % of normal ([1]; after treatment): ~55% | Bilirubin ([1]; after treatment): 0.50±0.03 mg % | Lymphocytes, % of normal ([1]; after treatment): about 81% | T-lymphocytes, % of normal ([1]; after treatment): about 75% | Clinical outcome ([1]; in vivo): alleviated pain, reduced fever, and decreased the duration of the medical treatment | B-Lymphocytes: % of Normal Value [1, 2]: (55%) | B-Lymphocytes: % of PBL [1, 2]: 11.09 ± 0.87 % of PBL | B-Lymphocytes: No. [1, 2]: 0.27 ± 0.03* 10^9/L | Blastogenic Response: % Lym blast w/Con A [1, 2]: 68.70 ± 5.32% | Blastogenic Response: % Lym blast w/PHA [1, 2]: 37.22 ± 2.81 % | IgA [1, 2]: 2.61 ± 0.33 g/L | IgA % Normal Value [1, 2]: (137%) | IgG [1, 2]: 13.73 ± 0.51 g/L | IgG % Normal Value [1, 2]: (126%) | IgM [1, 2]: 2.64 ± 0.36 g/L | IgM % Normal Value [1, 2]: (176%) | Lymphocytes: % Normal Value [1, 2]: (81%) | Lymphocytes: % of PBL [1, 2]: 36.61 ± 1.32 % of PBL | Lymphocytes: No. [1, 2]: 2.26 ± 0.12* 10^9/L | Phagocytes: % PBL [1, 2]: 74.78 ± 2.35 % PBL | T-Lymphocytes: % of Lym [1, 2]: 71.57 ± 1.76 % of Lym | T-Lymphocytes: % of Normal Value [1, 2]: (75%) | T-Lymphocytes: No. [1, 2]: 1.67 ± 0.09* 10^9/L | cAMP and cGMP levels (cAMP and cGMP; sensitized and anaphylactic animals): significantly elevated the levels of cAMP and cGMP | cAMP (cAMP and cGMP; [3]): 210 ± 30 pmole/10^7 cells | cAMP/cGMP (cAMP and cGMP; [3]): 26 ± 3 | cGMP (cAMP and cGMP; [3]): 7.9 ± 0.5 pmole/10^7 cells | cAMP (cAMP and cGMP; [4]): 250 ± 30 pmole/10^7 cells | cAMP/cGMP (cAMP and cGMP; [4]): 22 ± 2 | cGMP (cAMP and cGMP; [4]): 11.2 ± 0.9 pmole/10^7 cells
